The target in test [1] is T1, human GLP-1 receptor (Homo sapiens, UniProt P43220).
T1 construct: expressed in transfected cells; host or cells: membranes of BHK cells (parent BHKTS13), clone FCW467-12A
Kind of test: Assay (I)(a) GLP-1 receptor activation, CRE luciferase reporter gene assay in BHK cells. The following applies: without presence of serum albumin; read-out: GLP-1R EC50 (pM) [Assay (I)(a)]. Format: cell-based. How it is done: The purpose of this example was to test the activity or potency, of the glucagon derivatives of the invention, in vitro. The in vitro potency is the measure of human GLP-1 receptor (GLP-1R) or glucagon receptor (glucagonR) activation, respectively, in a whole cell assay. In vitro potency was determined by measuring the response of human GLP-1 or glucagon receptor, respectively, in a reporter gene assay. The assay was performed in a stably transfected BHK cell line that expresses either the human GLP-1 receptor or the human glucagon receptor and contains the DNA for the cAMP response element (CRE) coupled to a promoter and the gene for firefly luciferase (CRE luciferase). […] When assay incubation was completed, the luciferase substrate (luciferin) was added and the enzyme converted luciferin to oxyluciferin and produces bioluminescence. The luminescence was measured as the readout for the assay. The cells used in this assay (clone FCW467-12A/KZ10-1) were BHK cells with BHKTS13 as a parent cell line. The cells were derived from a clone (FCW467-12A) that expresses the human GLP-1 receptor and were established by further transfection with CRE luciferase to obtain the current clone. The cells were cultured at 5% CO2 in DMEM medium with 10% FBS, 1×GlutaMAX, 1 mg/ml G418, 240 nM MTX (methotrexate) and 1% pen/strep (penicillin/streptomycin). They were aliquoted and stored in liquid nitrogen. Before each assay, an aliquot was taken up and washed three times in PBS before being suspended at the desired concentration in assay medium. For 96-well plates the suspension was made to give a final concentration of 5×10EE3 cells/well. The following chemicals were used in the assay: Pluronic F-68 (10%) (Gibco 2404), ovalbumin (Sigma A5503), DMEM w/o phenol red (Gibco 11880-028), 1 M Hepes (Gibco 15630), Glutamax 100× (Gibco 35050) and steadylite plus (PerkinElmer 6016757). Assay Medium consisted of DMEM w/o phenol red, 10 mM Hepes, 1× GlutaMAX, 2% Ovalbumin and 0.2% Pluronic F-68. Cell stocks were thawed in a 37° C. water bath. Cells were washed three times in PBS. The cells were counted and adjusted to 5×10EE3 cells/50 μl (1×10EE5 cells/ml) in Assay Medium. A 50 μl aliquot of cells was transferred to each well in the assay plate. Stocks of the test compounds and reference compounds were diluted to a concentration of […] in Assay Medium. Compounds were diluted 10-fold to give the following concentrations: 2×10EE-6 M, 2×10EE-7 M, 2×10EE-8 M; 2×10EE-9 M, 2×10EE-10 M, 2×10EE-11 M, 2×10EE-12 M and 2×10EE-13 M. For each compound a blank assay medium control was also included. A 50 μl aliquot of compound or blank was transferred from the dilution plate to the assay plate. Compounds were tested at the following final concentrations: 1×10EE-6 M, 1×10EE-7 M, 1×10EE-8 M; 1×10EE-9 M, 1×10EE-10 M, 1×10EE-11 M and 1×10EE-12 M and 1×10EE-13 M. The assay plate was incubated for 3 h in a 5% CO2 incubator at 37° C. The assay plate was removed from the incubator and allowed to stand at room temperature for 15 min. A 100 μl aliquot of steadylite plus reagent was added to each well of the assay plate (reagent is light sensitive). Each assay plate was covered with aluminum foil to protect it from light and shaken for 30 min at room temperature. Each assay plate was read in a Perkin Elmer TopCount NXT instrument. The data from the TopCount instrument was transferred to GraphPad Prism software. The software performed a non-linear regression (log(agonist) vs response-Variable slope (four parameter)). EC50 values were calculated by the software and reported in pM.
In general terms: A reporter such as luciferase makes a cellular process visible.

The target of test [2] is T1, human GLP-1 receptor. Kind of test: Assay (II)(a) GLP-1 receptor binding, 125I-GLP-1 displacement SPA on BHK membranes. As to conditions: without presence of serum albumin; read-out: GLP-1R IC50 (nM) [Assay (II)(a)]. How it is done:
The GLP-1 receptor (GLP-1R) binding is a measure of affinity of a compound for the human GLP-1 receptor. The receptor binding of each compound to the human GLP-1 receptor was measured in a displacement binding assay. In this type of assay a labelled ligand (in this case 125I-GLP-1) is bound to the receptor. Each derivative was added in a series of concentrations to isolated membranes containing the human GLP-1 receptor and displacement of the labelled ligand was monitored. The receptor binding was reported as the concentration at which half of the labelled ligand was displaced from the receptor, the IC50 value. In order to test the binding of the derivatives to albumin, the assay may be performed in a very low concentration of serum albumin (max. 0.001% final assay concentration) as well as in the presence of a (considerably) higher concentration of serum albumin (2.0% final assay concentration). An increase of the IC50 value, in the presence of serum albumin indicates an affinity to serum albumin and represents a method to predict a protracted pharmacokinetic profile of the test substance in animal models. The following chemicals were used in the assay: DMEM w/o phenol red (Gibco 11880-028), Pen/strep (Invitrogen 15140-122), G418 (Invitrogen 10131-027), 1 M Hepes (Gibco 15630), EDTA (Invitrogen 15575-038), PBS (Invitrogen 14190-094), fetal calf serum (Invitrogen 16140-071), EGTA, MgCl2 (Merck 1.05832.1000), Tween 20 (Amresco 0850C335), SPA particles (wheat germ agglutinin (WGA) SPA beads, Perkin Elmer RPNQ0001), [125I]-GLP-1]-(7-36)NH2 (produced in-house), OptiPlate™-96 (Perkin Elmer). Buffer 1 consisted of 20 mM Na-HEPES plus 10 mM EDTA and pH was adjusted to 7.4. Buffer 2 consisted of 20 mM Na-HEPES plus 0.1 mM EDTA and pH was adjusted to 7.4. Assay buffer consisted of 50 mM HEPES supplemented with 5 mM EGTA, 5 mM MgCl2, 0.005% Tween 20 and pH was adjusted to 7.4. The cells used in this assay (clone FCW467-12A) were BHK cells with BHKTS13 as a parent cell line. The cells express the human GLP-1 receptor. The cells were grown at 5% CO2 in DMEM, 10% fetal calf serum, 1% Pen/Strep (Penicillin/Streptomycin) and 1.0 mg/ml of the selection marker G418. To make a membrane preparation the cells were grown to approximately 80% confluence. The cells were washed twice in phosphate-buffered saline and harvested. The cells were pelleted using a brief centrifugation and the cell pellet was kept on ice. The cell pellet was homogenised with ULTRA-THURRAX dispersing instrument for 20-30 seconds in a suitable amount of buffer 1 (e.g., 10 ml). The homogenate was centrifuged for 15 minutes. The pellet was re-suspended (homogenised) in 10 ml buffer 2 and centrifuged. This step was repeated once more. The resulting pellet was re-suspended in buffer 2 and the protein concentration was determined. The membranes were aliquoted and stored at minus 80° C. • 1. For the receptor binding assay, 50 μl of the assay buffer was added to each well of an assay plate. • 2. Test compounds were serially diluted to give the following concentrations: 8×10EE-7 M, 8×10EE-8 M, 8×10EE-9 M, 8×10EE-10 M, 8×10EE-11 M, 8×10EE-12 M and 8×10EE-13 M. Twenty-five μl were added to appropriate wells in the assay plate. • 3. Cell membrane aliquots were thawed and diluted to their working concentration. Fifty μl were added to each well in the assay plate. • 4. WGA SPA beads were suspended in assay buffer at 20 mg/ml. The suspension was diluted to 10 mg/ml in assay buffer just prior to addition to the assay plate. Fifty μl were added to each well in the assay plate. • 5. The incubation was started by adding 25 μl of […] solution of [125I]-GLP-1]-(7-36)NH2 to each well of the assay plate. A 25 μl aliquot was reserved for measuring total counts/well. • 6. The assay plate was incubated for 2 h at 30° C. • 7. The assay plate was centrifuged for 10 min. • 8. The assay plate was read in a Perkin Elmer TopCount NXT instrument. […]

Starred links: 1 amine or outer side, 2 acyl side, 3 side chain; linkers in the order of their positions; H or OH if unused. Non-standard residues stand in square brackets, D forms with d. Residues, ends and D or L forms follow the SMILES beside them. Groups on a side chain read outwards from the residue. *: point of attachment. C18 diacid = O=C(O)CCCCCCCCCCCCCCCCC(=O)*; γGlu = O=C(O)[C@H](CCC(=O)[*:2])N[*:1]; AEEA = NCCOCCOCC(=O)O; Aib = CC(C)(N)C(=O)O

T1 sequence (P43220 24-463): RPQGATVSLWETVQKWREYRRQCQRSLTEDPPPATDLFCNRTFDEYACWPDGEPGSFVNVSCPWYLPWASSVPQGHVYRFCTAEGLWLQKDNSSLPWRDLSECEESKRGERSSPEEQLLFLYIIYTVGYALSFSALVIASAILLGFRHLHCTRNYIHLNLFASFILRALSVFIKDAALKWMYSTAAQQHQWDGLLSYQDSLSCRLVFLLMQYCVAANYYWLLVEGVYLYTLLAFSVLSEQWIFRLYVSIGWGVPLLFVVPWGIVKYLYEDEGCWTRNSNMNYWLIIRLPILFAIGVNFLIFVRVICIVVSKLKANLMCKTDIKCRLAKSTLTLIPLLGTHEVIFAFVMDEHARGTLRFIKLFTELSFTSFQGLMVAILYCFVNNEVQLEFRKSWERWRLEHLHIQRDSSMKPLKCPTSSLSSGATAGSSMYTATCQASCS

For `CC[C@H](C)[C@H](NC(=O)[C@H](CC(C)C)NC(=O)[C@H](Cc1c[nH]c2ccccc12)NC(=O)[C@H](CCCCNC(=O)COCCOCCNC(=O)COCCOCCNC(=O)CC[C@H](NC(=O)CC[C@H](NC(=O)CC[C@H](NC(=O)CCCCCCCCCCCCCCCCC(=O)O)C(=O)O)C(=O)O)C(=O)O)NC(=O)[C@@H](NC(=O)[C@H](Cc1ccccc1)NC(=O)[C@H](CCC(=O)O)NC(=O)[C@H](CCCNC(=N)N)NC(=O)[C@H](C)NC(=O)[C@H](CCCNC(=N)N)NC(=O)[C@H](CCCCN)NC(=O)[C@H](C)NC(=O)[C@H](CC(=O)O)NC(=O)[C@H](CC(C)C)NC(=O)[C@H](Cc1ccc(O)cc1)NC(=O)[C@H](CCCCN)NC(=O)[C@H](CO)NC(=O)[C@H](Cc1ccc(O)cc1)NC(=O)[C@H](CC(=O)O)NC(=O)[C@H](CO)NC(=O)[C@@H](NC(=O)[C@H](Cc1ccccc1)NC(=O)[C@@H](NC(=O)CNC(=O)[C@H](CCC(N)=O)NC(=O)C(C)(C)NC(=O)[C@@H](N)Cc1c[nH]cn1)[C@@H](C)O)[C@@H](C)O)C(C)C)C(=O)N[C@@H](CO)C(=O)N[C@H](C(N)=O)[C@@H](C)O` [Chem. 2, N^ε24-[2-[2-[2-[[2-[2-[2-[[(4S)-4-carboxy-4-[[(4S)-4-carboxy-4-[[(4S)-4-carboxy-4-(17-carboxyheptadecanoylamino)butanoyl]amino]butanoyl]amino]butanoyl]amino]ethoxy]ethoxy]acetyl]amino]ethoxy]ethoxy]acetyl]-[Aib2,Ala16,Lys17,Arg20,Glu21,Lys24,Ile27,Ser28]-Glucagon amide] (H-H[Aib]QGTFTSDYSKYLDAKRAREFVK([AEEA-AEEA-γGlu-γGlu-γGlu-C18 diacid])WLIST-NH2; N-terminus assumed), the concentration giving a half-maximal response (EC50) at human GLP-1 receptor [1] is 2 pM. The IC50 on human GLP-1 receptor [2] is 0.3 nM.

For the molecule `CC[C@H](C)[C@H](NC(=O)[C@H](CC(C)C)NC(=O)[C@H](Cc1c[nH]c2ccccc12)NC(=O)[C@H](CCC(N)=O)NC(=O)[C@@H](NC(=O)[C@H](Cc1ccccc1)NC(=O)[C@H](CC(=O)O)NC(=O)[C@H](CCCNC(=N)N)NC(=O)[C@H](C)NC(=O)[C@H](CCCNC(=N)N)NC(=O)[C@H](CCCNC(=N)N)NC(=O)[C@H](CO)NC(=O)[C@H](CCC(=O)O)NC(=O)[C@H](CC(C)C)NC(=O)[C@H](Cc1ccc(O)cc1)NC(=O)[C@H](CCCCN)NC(=O)[C@H](CO)NC(=O)[C@H](CC(C)C)NC(=O)[C@H](CC(=O)O)NC(=O)[C@H](CO)NC(=O)[C@@H](NC(=O)[C@H](Cc1ccccc1)NC(=O)[C@@H](NC(=O)CNC(=O)[C@H](CCC(N)=O)NC(=O)C(C)(C)NC(=O)[C@@H](N)Cc1c[nH]cn1)[C@@H](C)O)[C@@H](C)O)C(C)C)C(=O)N[C@@H](CCCCNC(=O)COCCOCCNC(=O)COCCOCCNC(=O)CC[C@H](NC(=O)CC[C@H](NC(=O)CC[C@H](NC(=O)CCCCCCCCCCCCCCCCC(=O)O)C(=O)O)C(=O)O)C(=O)O)C(=O)N[C@H](C(N)=O)[C@@H](C)O` [Chem. 3, N^ε28-[2-[2-[2-[[2-[2-[2-[[(4S)-4-carboxy-4-[[(4S)-4-carboxy-4-[[(4S)-4-carboxy-4-(17-carboxyheptadecanoylamino)butanoyl]amino]butanoyl]amino]butanoyl]amino]ethoxy]ethoxy]acetyl]amino]ethoxy]ethoxy]acetyl]-[Aib2,Leu10,Glu15,Arg20,Ile27,Lys28]-Glucagon amide] (H-H[Aib]QGTFTSDLSKYLESRRARDFVQWLIK([AEEA-AEEA-γGlu-γGlu-γGlu-C18 diacid])T-NH2; N-terminus assumed), on human GLP-1 receptor [1], the EC50 amounted to 2 pM. Also, the IC50 at human GLP-1 receptor [2] amounted to 0.1 nM.

As usually defined, the EC50 is the concentration at which the effect is half-maximal. Broadly, the IC50 is the midpoint of a concentration-inhibition curve.

(Values after patent US10570184B2, “GLP-1/glucagon receptor co-agonists for medical use” (Novo Nordisk A/S, priority 2014, dated 2020).)
